Laboratory results taken from patent US12084435B2, “Pyridine ring-substituted pyridazinol compounds and derivatives, preparation methods, herbicidal compositions and applications thereof” (Qingdao Kingagroot Chemical Compound Co., Ltd., priority 2018, dated 2024).

Key:
[1] = tested on: monocotyledonous and dicotyledonous weed; test: Post-emergence test, weed control effect (Tables 6 and 7); assay type: in vivo; set-up: key: 10: completely dead; above 90% growth inhibition rate; above 80% growth inhibition rate; above 70% growth inhibition rate; above 60% growth inhibition rate; above 50% growth inhibition rate; above 40% growth inhibition rate; above 30% growth inhibition rate; above 20% growth inhibition rate; 1: below 20% growth inhibition rate; 0: no effect; conditions: for comparison experiment (activity level), Digitaria sanguinalis / comparison experiment (activity level), Echinochloa crus-galli / comparison experiment (activity level), Galium aparine / comparison experiment (activity level), Rorippa indica / comparison experiment (activity level), Setaria viridis / comparison experiment (activity level), Veronica polita: Dose 300 g/ha; for weed control effect (activity level), Amaranthus retroflexus / weed control effect (activity level), Chenopodiaceae / weed control effect (activity level), Rorippa indica / weed control effect (activity level), Veronica polita: after 3 weeks
Protocol: The above described growth inhibition rates are fresh weight inhibition rates. Experiment of post-emergence test: monocotyledonous and dicotyledonous weed seeds as well as main crop seeds (i.e., wheat, corn, rice, soybean, cotton, oilseed rape, millet and sorghum) were put into aplastic pot loaded with soil, then covered with 0.5-2 cm of soil, and the seeds were allowed to grow in good greenhouse environment. The test plants were treated at 4-5 leaf stage 2-3 week […] sowing. The test compounds of the invention were dissolved in acetone respectively, then added with Tween-80 and diluted by a certain amount of water to give solutions with certain concentrations. The solution was sprayed to the plants with as prayer. The plants were cultured for 3 weeks in the greenhouse.

[2] = tested on: Echinochloa crusgalli, Scirpus juncoides, Sagittaria trifolia L. and Bidens tripartite; test: Resistance tests of the collected rice-field weeds; assay type: in vivo; conditions: common rate; weed seeds collected from Heilongjiang Province of China
Excerpt: Note: The seeds of Echinochloa crusgalli, Scirpus juncoides, Sagittaria trifolia L. and Bidens tripartite were collected from Heilongjiang Province of China.

Structure (SMILES)	weed control effect (activity level), Amaranthus retroflexus ([1]; Dose 2000 g/ha)	weed control effect (activity level), Chenopodiaceae ([1]; Dose 2000 g/ha)	weed control effect (activity level), Rorippa indica ([1]; Dose 2000 g/ha)	weed control effect (activity level), Veronica polita ([1]; Dose 2000 g/ha)	other results
Oc1cc(Cl)nnc1-c1cccnc1 [Compound 1-1]	10	10	10	10	comparison experiment (activity level), Digitaria sanguinalis [1]: 7 (above 70% growth inhibition rate); comparison experiment (activity level), Echinochloa crus-galli [1]: 8 (above 80% growth inhibition rate); comparison experiment (activity level), Galium aparine [1]: 9 (above 90% growth inhibition rate); comparison experiment (activity level), Rorippa indica [1]: 10; comparison experiment (activity level), Setaria viridis [1]: 10; comparison experiment (activity level), Veronica polita [1]: 9 (above 90% growth inhibition rate)
Oc1cc(Cl)nnc1-c1cccnc1F [Compound 1-2]	10	10	10	10	comparison experiment (activity level), Digitaria sanguinalis [1]: 8 (above 80% growth inhibition rate); comparison experiment (activity level), Echinochloa crus-galli [1]: 10; comparison experiment (activity level), Galium aparine [1]: 9 (above 90% growth inhibition rate); comparison experiment (activity level), Rorippa indica [1]: 10; comparison experiment (activity level), Setaria viridis [1]: 10; comparison experiment (activity level), Veronica polita [1]: 10
Oc1cc(Cl)nnc1-c1ccc(F)nc1 [Compound 1-3]	10	10	10	10	
Oc1cc(Cl)nnc1-c1cncc(F)c1 [Compound 1-4]	10	10	10	10	comparison experiment (activity level), Digitaria sanguinalis [1]: 8 (above 80% growth inhibition rate); comparison experiment (activity level), Echinochloa crus-galli [1]: 8 (above 80% growth inhibition rate); comparison experiment (activity level), Galium aparine [1]: 10; comparison experiment (activity level), Rorippa indica [1]: 10; comparison experiment (activity level), Setaria viridis [1]: 10; comparison experiment (activity level), Veronica polita [1]: 10
Oc1cc(Cl)nnc1-c1cnccc1F [Compound 1-5]	10	10	10	10	
Oc1cc(Cl)nnc1-c1cccnc1Cl [Compound 1-6]	10	10	10	7 (above 70% growth inhibition rate)	
Oc1cc(Cl)nnc1-c1cncc(Cl)c1 [Compound 1-8]	10	10	10	10	
Oc1cc(Cl)nnc1-c1ccc(Br)nc1 [Compound 1-11]	10	10	10	10	
Oc1cc(Cl)nnc1-c1ccc(C(F)(F)F)nc1 [Compound 1-23]	10	10	10	10	
Oc1cc(Cl)nnc1-c1ccc(F)nc1F [Compound 1-57]	10	10	10	10	
Oc1cc(Cl)nnc1-c1cc(F)cnc1F [Compound 1-58]	10	10	10	10	
Oc1cc(Cl)nnc1-c1cnc(F)c(F)c1 [Compound 1-60]	10	10	10	7 (above 70% growth inhibition rate)	
Oc1cc(Cl)nnc1-c1ccc(Cl)nc1Cl [Compound 1-63]	10	10	10	10	
Cc1nc(F)ccc1-c1nnc(Cl)cc1O [Compound 1-90]	10	10	10	7 (above 70% growth inhibition rate)	
Oc1cc(Cl)nnc1-c1cc(F)c(F)nc1F [Compound 1-105]	10	10	10	10	
Oc1cc(C(F)(F)C(F)(F)F)nnc1-c1ccc(F)nc1F [Compound 1-131]					weed control effect (activity level), Amaranthus retroflexus ([1]; Dose 3000 g/ha): 10; weed control effect (activity level), Chenopodiaceae ([1]; Dose 3000 g/ha): 10; weed control effect (activity level), Rorippa indica ([1]; Dose 3000 g/ha): 10; weed control effect (activity level), Veronica polita ([1]; Dose 3000 g/ha): 10
Oc1cc(Cl)nnc1-c1ccnc(F)c1 [Compound 2-3]					comparison experiment (activity level), Digitaria sanguinalis [1]: 10; comparison experiment (activity level), Echinochloa crus-galli [1]: 10; comparison experiment (activity level), Galium aparine [1]: 10; comparison experiment (activity level), Rorippa indica [1]: 10; comparison experiment (activity level), Setaria viridis [1]: 10; comparison experiment (activity level), Veronica polita [1]: 10; weed control effect (activity level), Amaranthus retroflexus ([1]; Dose 1000 g/ha): 10; weed control effect (activity level), Chenopodiaceae ([1]; Dose 1000 g/ha): 10; weed control effect (activity level), Rorippa indica ([1]; Dose 1000 g/ha): 10; weed control effect (activity level), Veronica polita ([1]; Dose 1000 g/ha): 10
Oc1cc(Cl)nnc1-c1ccnc(Cl)c1 [Compound 2-5]					weed control effect (activity level), Amaranthus retroflexus ([1]; Dose 1000 g/ha): 10; weed control effect (activity level), Chenopodiaceae ([1]; Dose 1000 g/ha): 10; weed control effect (activity level), Rorippa indica ([1]; Dose 1000 g/ha): 10; weed control effect (activity level), Veronica polita ([1]; Dose 1000 g/ha): 10
Oc1cc(Cl)nnc1-c1ccnc(F)c1F [Compound 2-10]					weed control effect (activity level), Amaranthus retroflexus ([1]; Dose 1000 g/ha): 10; weed control effect (activity level), Chenopodiaceae ([1]; Dose 1000 g/ha): 10; weed control effect (activity level), Rorippa indica ([1]; Dose 1000 g/ha): 10; weed control effect (activity level), Veronica polita ([1]; Dose 1000 g/ha): 10
Oc1cc(Cl)nnc1-c1cc(F)ncc1F [Compound 2-11]					weed control effect (activity level), Amaranthus retroflexus ([1]; Dose 1000 g/ha): 10; weed control effect (activity level), Chenopodiaceae ([1]; Dose 1000 g/ha): 10; weed control effect (activity level), Rorippa indica ([1]; Dose 1000 g/ha): 10; weed control effect (activity level), Veronica polita ([1]; Dose 1000 g/ha): 10
Oc1cc(Cl)nnc1-c1cc(F)nc(F)c1 [Compound 2-13]					weed control effect (activity level), Amaranthus retroflexus ([1]; Dose 1000 g/ha): 10; weed control effect (activity level), Chenopodiaceae ([1]; Dose 1000 g/ha): 10; weed control effect (activity level), Rorippa indica ([1]; Dose 1000 g/ha): 10; weed control effect (activity level), Veronica polita ([1]; Dose 1000 g/ha): 10
Oc1cc(Cl)nnc1-c1cc(F)nc(Cl)c1 [Compound 2-23]					weed control effect (activity level), Amaranthus retroflexus ([1]; Dose 1000 g/ha): 10; weed control effect (activity level), Chenopodiaceae ([1]; Dose 1000 g/ha): 10; weed control effect (activity level), Rorippa indica ([1]; Dose 1000 g/ha): 10; weed control effect (activity level), Veronica polita ([1]; Dose 1000 g/ha): 10
Oc1cc(Cl)nnc1-c1ccc(F)cn1 [Compound 3-3]	10	10	10	10	
Oc1cc(Cl)nnc1-c1ccc(Cl)cn1 [Compound 3-7]	10	10	10	10	
Oc1cc(Cl)nnc1-c1cc(Cl)ccn1 [Compound 3-8]	10	10	10	10	
Oc1cc(Cl)nnc1-c1ccc(F)c(F)n1 [Compound 3-18]	10	10	10	10	
Oc1cc(Cl)nnc1-c1cc(F)cc(F)n1 [Compound 3-19]	10	10	10	10	
Oc1cc(Cl)nnc1-c1ccc(Cl)c(F)n1 [Compound 3-30]	10	10	10	10	
CCCCCCCCSC(=O)Oc1cc(Cl)nnc1-c1ccccc1 [Control Compound B, reference compound]					comparison experiment (activity level), Digitaria sanguinalis [1]: 0; comparison experiment (activity level), Echinochloa crus-galli [1]: 0; comparison experiment (activity level), Galium aparine [1]: 4 (above 40% growth inhibition rate); comparison experiment (activity level), Rorippa indica [1]: 3 (above 30% growth inhibition rate); comparison experiment (activity level), Setaria viridis [1]: 2 (above 20% growth inhibition rate); comparison experiment (activity level), Veronica polita [1]: 6 (above 60% growth inhibition rate)
CCOC(=O)c1cnn(C)c1S(=O)(=O)NC(=O)Nc1nc(OC)cc(OC)n1 [pyrazosulfuron-ethyl]					resistance of the weeds to the herbicide [2]: resistant
